# Reference: patent publication US10221163B2 (priority 2015, dated 2019)
# Where two headings read alike, the source gives them in different places.
# Columns and labels:
# [1] = system: Serratia marcescens expressing IMP-1 (CL5741); format: cell-based; settings: with imipenem 1 μg/ml; 95% inhibition of bacterial growth
# Outline: (§1)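 Colonies grown overnight on blood agar at 35° C were suspended in saline, diluted 1:100 into 1.1×CAMHB and dispensed. Imipenem was added to 1 μg/ml, then test compound. After 22 hours to 24 hours at 35° C, absorbance was recorded.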
# [2] = system: Klebsiella pneumoniae expressing VIM-1 (IHMA599644); format: cell-based; settings: with imipenem 1 μg/ml; 95% inhibition of bacterial growth
# Outline: as §1
# [3] = system: Escherichia coli expressing NDM-1 (CLB30005, CLB30016); format: cell-based; settings: with imipenem 1 μg/ml; 95% inhibition of bacterial growth
# Outline: as §1
# [4] = system: Pseudomonas aeruginosa efflux+ (MB9798), IMP-1; format: cell-based; settings: concentration restoring susceptibility to imipenem at 2 μg/mL in the presence of a class A, C, D serine β-lactamase inhibitor closely related to relebactam
# Outline: (§2)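 P. aeruginosa PAO1-derived IMP-1 strains, efflux+ MB9798 and efflux− MB9799, tested by standard microbroth MIC with imipenem and/or ceftazidime fixed, usually at CLSI breakpoint, plus fixed class A/C β-lactamase inhibitor against AmpC. Inhibitor titrated; concentration restoring susceptibility recorded; MB9798/MB9799 fold difference indicates efflux.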
# [5] = system: Pseudomonas aeruginosa MB9798 vs MB9799; settings: ratio MITC95 PA_9798/MITC95 PA_9799
# Outline: as §2
# IMP-1 = IMP-1 (Serratia marcescens, UniProt P52699); experiment: biochemical; format: biochemical; settings: fluorescence assay, CCF2-FA substrate, 2 pM enzyme, 2 hours at 25° C.; read-out: IMP-1 IC50
# Outline: (§3)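 Two-hour, 25° C incubation of enzyme with inhibitor and CCF2-FA (7-hydroxycoumarin–cephalosporin–fluorescein). Fluorescence read-out; IC50 via 4-parameter fit.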
# NDM-1 = NDM-1 (Klebsiella pneumoniae, UniProt C7C422); experiment: biochemical; format: biochemical; settings: fluorescence assay, CCF2-FA substrate, 1 pM enzyme, 2 hours at 25° C.; read-out: NDM-1 IC50
# Outline: as §3
# [6] = system: Pseudomonas aeruginosa efflux− (MB9799), IMP-1; format: cell-based; settings: concentration restoring susceptibility to imipenem at 2 μg/mL in the presence of a class A, C, D serine β-lactamase inhibitor closely related to relebactam
# Outline: as §2
# VIM-1 = VIM-1 (Pseudomonas aeruginosa (strain ATCC 15692 / DSM 22644 / CIP 104116 / JCM 14847 / LMG 12228 / 1C / PRS 101 / PAO1), UniProt A0A0F7KYQ8); experiment: biochemical; settings: CCF2-FA substrate, 30 pM enzyme, 2 hours at 25° C.
# Outline: as §3
# [7] = fluorescence assay, read-out: VIM-1 IC50
# Chain of IMP-1 (P52699 whole entry, looked up, species assumed): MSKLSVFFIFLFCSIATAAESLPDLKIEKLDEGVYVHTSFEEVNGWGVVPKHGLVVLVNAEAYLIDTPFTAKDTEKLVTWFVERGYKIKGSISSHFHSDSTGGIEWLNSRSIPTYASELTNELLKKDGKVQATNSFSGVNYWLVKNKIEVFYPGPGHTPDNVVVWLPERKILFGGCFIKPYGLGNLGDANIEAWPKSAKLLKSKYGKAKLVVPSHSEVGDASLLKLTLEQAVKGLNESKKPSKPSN
# Chain of NDM-1 (C7C422 whole entry, looked up, species assumed): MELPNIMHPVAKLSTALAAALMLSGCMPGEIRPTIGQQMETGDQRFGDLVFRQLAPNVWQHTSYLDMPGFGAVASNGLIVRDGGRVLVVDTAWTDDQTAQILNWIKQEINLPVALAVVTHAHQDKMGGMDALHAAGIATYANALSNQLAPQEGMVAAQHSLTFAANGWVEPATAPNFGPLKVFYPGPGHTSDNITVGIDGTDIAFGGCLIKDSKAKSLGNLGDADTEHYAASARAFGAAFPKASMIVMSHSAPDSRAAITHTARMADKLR
Compound,Serratia marcescens expressing IMP-1 (CL5741) MITC95 [1] [µM],Klebsiella pneumoniae expressing VIM-1 (IHMA599644) MITC95 [2] [µM],Escherichia coli expressing NDM-1 (CLB30016) MITC95 [3] [µM],"P. aeruginosa expressing IMP-1, efflux + (MB9798) MITC95 [4] [µM]",Efflux ratio [5],IC50 (IMP-1) [pM],IC50 (NDM-1) [pM],"P. aeruginosa expressing IMP-1, efflux − (MB9799) MITC95 [6] [µM]",IC50 (VIM-1; [7]) [pM],"IC50 (VIM-1; VIM-1 IC50, fluorescence assay) [pM]"
"Nc1nc2c(-c3ccc(S(=O)(=O)NCCN4CCNC(=O)C4)c(S(N)(=O)=O)c3-c3nnn[nH]3)cccc2s1 [Example 15, 4-(2-amino-1,3-benzothiazol-4-yl)-N1-[2-(3-oxopiperazin-1-yl)ethyl]-3-(1H-tetrazol-5-yl)benzene-1,2-disulfonamide]",12.5,25,50,12.5,1.00,451,92.6,12.5,394,
"CN(C)CC(F)(F)CNS(=O)(=O)c1ccc(-c2cccc3sc(N)nc23)c(-c2nnn[nH]2)c1S(N)(=O)=O [Example 16, 4-(2-amino-1,3-benzothiazol-4-yl)-N1-[3-(dimethylamino)-2,2-difluoropropyl]-3-(1H-tetrazol-5-yl)benzene-1,2-disulfonamide]",12.5,25,25,100,16.00,442,92.1,6.25,461,
"CN1CCOC(CNS(=O)(=O)c2ccc(-c3cccc4sc(N)nc34)c(-c3nnn[nH]3)c2S(N)(=O)=O)C1 (stereo not drawn) [Example 17, 4-(2-amino-1,3-benzothiazol-4-yl)-N1-[(4-methylmorpholin-2-yl)methyl]-3-(1H-tetrazol-5-yl)benzene-1,2-disulfonamide]",6.25,12.5,12.5,12.5,2.00,430,88.9,6.25,410,
"CN1CCCC(NS(=O)(=O)c2ccc(-c3cccc4sc(N)nc34)c(-c3nnn[nH]3)c2S(N)(=O)=O)C1 (stereo not drawn) [Example 18, 4-(2-amino-1,3-benzothiazol-4-yl)-N1-(1-methylpiperidin-3-yl)-3-(1H-tetrazol-5-yl)benzene-1,2-disulfonamide]",3.125,6.25,6.25,3.125,1.00,268,48.8,3.125,271,
"Nc1nc2c(-c3ccc(S(=O)(=O)NCC4CCC(=O)N4)c(S(N)(=O)=O)c3-c3nnn[nH]3)cccc2s1 (stereo not drawn) [Example 19, 4-(2-amino-1,3-benzothiazol-4-yl)-N1-[(5-oxopyrrolidin-2-yl)methyl]-3-(1H-tetrazol-5-yl)benzene-1,2-disulfonamide]",6.25,25,50,6.25,1.00,486,95.3,6.25,335,
"Cn1cnc(CNS(=O)(=O)c2ccc(-c3cccc4sc(N)nc34)c(-c3nnn[nH]3)c2S(N)(=O)=O)n1 [Example 20, 4-(2-amino-1,3-benzothiazol-4-yl)-N^1-[(1-methyl-1H-1,2,4-triazol-3-yl)methyl]-3-(1H-tetrazol-5-yl)benzene-1,2-disulfonamide]",6.25,25,25,6.25,1.00,817,97.2,6.25,494,
"CN(C)CCNS(=O)(=O)c1ccc(-c2cccc3sc(N)nc23)c(-c2nnn[nH]2)c1S(N)(=O)=O [Example 22, 4-(2-amino-1,3-benzothiazol-4-yl)-N^1-[2-(dimethylamino)ethyl]-3-(1H-tetrazol-5-yl)benzene-1,2-disulfonamide]",3.125,3.125,6.25,1.563,1.00,413,34.8,1.563,233,
"CNC(=O)CNS(=O)(=O)c1ccc(-c2cccc3sc(N)nc23)c(-c2nnn[nH]2)c1S(N)(=O)=O [Example 23, N^2-{[4-(2-amino-1,3-benzothiazol-4-yl)-2-sulfamoyl-3-(1H-tetrazol-5-yl)phenyl]sulfonyl}-N-methylglycinamide]",6.25,12.5,25,3.125,1.00,294,51.1,3.125,,224
"COCCNS(=O)(=O)c1ccc(-c2cccc3sc(N)nc23)c(-c2nnn[nH]2)c1S(N)(=O)=O [Example 24, 4-(2-amino-1,3-benzothiazol-4-yl)-N^1-(2-methoxyethyl)-3-(1H-tetrazol-5-yl)benzene-1,2-disulfonamide]",3.125,12.5,25,12.5,4.00,235,73.2,3.125,205,
"Nc1nc2c(-c3ccc(S(=O)(=O)N4CCC(CO)CC4)c(S(N)(=O)=O)c3-c3nnn[nH]3)cccc2s1 [Example 25, 3-(2-amino-1,3-benzothiazol-4-yl)-6-{[4-(hydroxymethyl)piperidin-1-yl]sulfonyl}-2-(1H-tetrazol-5-yl)benzenesulfonamide]",6.25,25,25,50,16.00,2240,3020,3.125,4520,
"CN(C)C1CCN(S(=O)(=O)c2ccc(-c3cccc4sc(N)nc34)c(-c3nnn[nH]3)c2S(N)(=O)=O)CC1 [Example 26, 3-(2-amino-1,3-benzothiazol-4-yl)-6-{[4-(dimethylamino)piperidin-1-yl]sulfonyl}-2-(1H-tetrazol-5-yl)benzenesulfonamide]",3.125,12.5,12.5,6.25,2.00,1150,974,3.125,1660,
"CN1CCN(S(=O)(=O)c2ccc(-c3cccc4sc(N)nc34)c(-c3nnn[nH]3)c2S(N)(=O)=O)CC1 [Example 27, 3-(2-amino-1,3-benzothiazol-4-yl)-6-[(4-methylpiperazin-1-yl)sulfonyl]-2-(1H-tetrazol-5-yl)benzenesulfonamide]",6.25,25,12.5,12.5,2.00,1590,825,6.25,1920,
